Measured values taken from patent publication US11241412B2 (priority 2015, dated 2022).
Values after ≈ are worked out from the molar mass of the structure shown. Values joined by “and” are separate entries in the source; they are usually repeats but may differ in a detail not shown here. Equal entries are not always repeated. Where two headings read alike, the source gives them in different places.

Legend:
[1] = test system: platelet aggregation induced by ADP, epinephrine and collagen; details: cited from earlier work
[2] = for adverse local or systemic effects after subcutaneous tumescent infiltration: dilute drug in TAD solution; for AUC / Cmax: Table 16B
From the text: Five pharmacokinetic studies each involved one IVAD procedure and one or two TAD procedures or a concomitant TAD+IVAD procedure. […] The AUC∞ and Cmax with TAD and with IVAD were compared.
The protocol received institutional review board approval and written informed consent was obtained prior to each research procedure. We compared tumescent antibiotic delivery (TAD) and intravenous antibiotic delivery (IVAD) with respect to concentration-time profile, AUC∞, Cmax and T>MIC.
Only after a prospective patient had requested liposuction surgery was the person offered the opportunity to participate in this research. Volunteer subjects were offered liposuction at no cost.
Exclusion criteria were: current significant health problems, history or evidence of HIV or Hepatitis C infection and […] of drugs that block cytochrome P450 3A4 or 1A2 or impair hemostasis.
Each of the 5 studies consisted of one IV antibiotic delivery (IVAD) procedure and one or two TAD infiltration procedures. In individual subjects, procedures were performed at least one week apart.
Metronidazole for IV delivery is available as 500 mg in 100 ml.
The discomfort of tumescent infiltration was minimized by a sequential infiltration technique: first using a spinal needle to infiltrate a relatively small volume of TAD sufficient to provide minimal anesthesia to allow comfortable insertion of blunt-tipped 16 gauge tumescent infiltration cannulas that provide large volume infiltration. The spinal needle and blunt-tipped infiltration cannulas were inserted through the skin via 1 mm adits made by a 1 mm skin biopsy punch. All patients were fully awake and received no parenteral sedation.
Sample Collection: After […], only serum concentrations were measured. After TAD both serum and TISF concentrations were measured. IVAD was achieved via an antecubital vein. Serum samples were obtained via an indwelling IV catheter in the contralateral antecubital vein.
A two-syringe sampling technique first removed 2 mL of blood, which was discarded, and then 10 mL of blood was obtained in a second syringe for drug assay. After each blood sample the IV catheter was flushed with 2 ml of saline and then 0.5 mL of heparin (10 units/mL).
Sequential samples of tumescent adipose tissue (10 ml to 20 ml) were obtained by the hand-held syringe liposuction technique. Sampling began at time T0 immediately after completing TAD infiltration and continued every 1 to 2 hours until the subject experienced significant discomfort as the result of diminishing local anesthesia. Samples of the subcutaneous tissue aspirate were centrifuged. The supranatant fat was discarded.
Data Analysis: We recorded the effect of varying the mg dose and mg/L concentration of antibiotics within TAD solutions between procedures in individual subjects and between different subjects.
Linear regression analysis was used to determine the correlation (coefficient of determination R2) between the antibiotic concentration (mg/L) in a TAD solution and Cmax in the infranatant liposuctioned subcutaneous tissue TISF. After TAD and after IVAD, Cmax in serum was determined by inspection of the sequential assays. AUC∞ was determined by the trapezoid rule.
At the time when each sample of TISF was obtained, patients were examined and questioned about signs and symptoms of subcutaneous tissue toxicity including unusual soreness, tenderness, discoloration, swelling at sites of subcutaneous tumescent infiltration. […] One week after TAD patients were questioned by telephone about any signs and symptoms of subcutaneous tissue toxicity at the sites of TAD.

[3] = Safety of tumescent drug delivery: subcutaneous infiltration of 20 ml tumescent solutions; details: for ecchymosis / local tenderness upon palpation / stinging upon injection: subcutaneous TI, 20 ml, 6 of 6 subjects
Procedure: We studied 6 subjects over 6 days after subcutaneous infiltration of a 20 ml of tumescent solutions of acyclovir and 20 ml of tumescent gentamicin with 20 ml of subcutaneous normal saline and 20 ml of subcutaneous bacteriostatic saline as controls.

[4] = mixed together in a saline solution for IV delivery; 8° C.; cited from earlier work
[5] = test system: Staphylococcus aureus (MRSA) ATCC 33592; details: combined test product Lidocaine+Cefazolin
Procedure: (§1) Following inoculation, survival of test microorganisms was determined.

[6] = test system: Staphylococcus aureus (MRSA) ATCC 33592; test: microbe, parasite or virus in culture; details: 24 h, read-out: MIC end point
Procedure: as §1

[7] = test system: Staphylococcus aureus (MRSA) ATCC 33592; type: cell-based
From the text: Determinations of MBC followed the method described in “Report on the Working Party on Antibiotic Sensitivity Testing of the British Society of Antimicrobial Chemotherapy: A Guide to Sensitivity Testing.”

platelet function = test: Bleeding time and bleeding area before and after tumescent lidocaine exposure (Duke method); type: in vivo, human; details: post-op tumescent lidocaine exposure
Procedure: The skin of the left and right thigh of a subject is cleaned and allowed to dry. […] Simultaneous 4 mm deep puncture wounds are made to the same area of the left and right thighs with disposable lancets. The puncture sites are blotted with filter paper every 30 seconds, until bleeding stops and the bleeding time for each thigh is recorded. The bleeding times of the left and right thigh are compared to determine if administration of TLAnti increases bleeding time. Normal bleeding time measured by the Duke method is 1 to 3 minutes.
In a preliminary experiment, bleeding time and bleeding area were measured in a patient before and after tumescent lidocaine exposure. […] In contrast, there was a 40% increase in Average Bleeding Area (BA). Bleeding Area (BA) was a more sensitive and a more specific test for platelet function compared to Bleeding Time (BT). […] In otherwords, TAD may reduce the risk of both post-operative surgical site infection and post-operative thromboembolism.

human neutrophils = details: cited from earlier work
[8] = commercial lidocaine (1%) with epinephrine (1:100,000); cited from earlier work
[9] = adults; TLA without liposuction
[10] = Abdomen, TISF, TAD, 172 mg/L, TAD dose 600 mg
[11] = Abdomen, serum, TAD, 172 mg/L, TAD dose 600 mg

CCCCN1CCCCC1C(=O)Nc1c(C)cccc1C (stereo not shown) [bupivacaine]
effect on platelet aggregation induced by ADP [1]: inhibit platelet aggregation induced by ADP

CNC[C@H](O)c1ccc(O)c(O)c1 [Epinephrine]
adverse local or systemic effects after subcutaneous tumescent infiltration [2]: no adverse local or systemic effects

CCOC(=O)c1ccc(N)cc1 [benzocaine]
effect on platelet aggregation induced by ADP [1]: inhibit platelet aggregation induced by ADP

Nc1nc2c(ncn2COCCO)c(=O)[nH]1 [Acyclovir]
ecchymosis [3]: no ecchymosis | local tenderness upon palpation [3]: no local tenderness upon palpation | stinging upon injection [3]: no stinging upon injection

Cc1nnc(SCC2=C(C(=O)O)N3C(=O)[C@@H](NC(=O)Cn4cnnn4)[C@H]3SC2)s1 [Cefazolin]
chemically stable for [4]: at least 72 hours | potency of Cefazolin against MRSA in the presence of Lidocaine [5]: not inhibited by the presence of Lidocaine | MIC [6]: 125 µg/mL (≈ 275 µM) | MRSA survival (MBC test) ([7]; 62.5 mg/L, Day 1, MRSA Inoculum 4.7 × 10^5 CFU/ml): + | MRSA survival (MBC test) ([7]; 62.5 mg/L, Day 2, MRSA Inoculum 4.4 × 10^5 CFU/ml): + | MRSA survival (MBC test) ([7]; 125 mg/L, Day 1, MRSA Inoculum 4.7 × 10^5 CFU/ml): + | MRSA survival (MBC test) ([7]; 125 mg/L, Day 2, MRSA Inoculum 4.4 × 10^5 CFU/ml): + | MRSA survival (MBC test) ([7]; 250 mg/L, Day 1, MRSA Inoculum 4.7 × 10^5 CFU/ml): 0 | MRSA survival (MBC test) ([7]; 250 mg/L, Day 2, MRSA Inoculum 4.4 × 10^5 CFU/ml): 0

Cc1ncc([N+](=O)[O-])n1CCO [Metronidazole]
chemically stable for [4]: at least 72 hours | Cmax in subcutaneous TISF after TAD+IVAD relative to serum after IVAD alone ([2]; 600 mg as TAD (400 mg) + IVAD (200 mg) vs 600 mg IVAD alone): 10 times | Cmax in TISF after TAD relative to Cmax in serum after IVAD ([2]; TAD 500 mg vs IVAD 500 mg): 24.7 times | AUC [2, 10]: 1032 µg·h/mL | Cmax [2, 10]: 160000 ng/mL | AUC [2, 11]: 81 µg·h/mL | Cmax [2, 11]: 4800 ng/mL | AUC ([2]; serum, IVAD, dose 600 mg): 127 µg·h/mL | Cmax ([2]; serum, IVAD, dose 600 mg): 14000 ng/mL | adverse local or systemic effects after subcutaneous tumescent infiltration [2]: no adverse local or systemic effects | concentration-time profiles of cefazolin and metronidazole in TISF after TAD compared ([2]; equal mg doses and equal mg/L concentrations in the TAD solution): identical | initial period in which serum concentrations were greater after IVAD than after TAD; beyond it TAD greater ([2]; serum): 10 h

CCN(CC)CC(=O)Nc1c(C)cccc1C [Lidocaine]
Average Bleeding Area (BA) (platelet function; Patient 1 (control BA = 541)): BA = 759 | Average Bleeding Time (BT) (platelet function; Patient 1 (control BT = 6)): BT = 5.75 | Bleeding Time BT × 2 (platelet function; Patient 1, single tests T3, T4): 10 and 13 | reactive oxygen species (ROS) production by human neutrophils (human neutrophils; concentrations 100-fold higher than safe serum lidocaine concentrations (≤5 μg/ml)): effectively reduced reactive oxygen species (ROS) production | effect on ROS (human neutrophils; therapeutic serum lidocaine concentrations): no effect on ROS | dosage limitation approved by the FDA for infiltration local anesthesia [8]: 7 mg/kg | adverse local or systemic effects after subcutaneous tumescent infiltration [2]: no adverse local or systemic effects | MRSA survival (MBC test) ([7]; 1,000 mg/L, Day 1, MRSA Inoculum 4.7 × 10^5 CFU/ml): + | MRSA survival (MBC test) ([7]; 1,000 mg/L, Day 2, MRSA Inoculum 4.4 × 10^5 CFU/ml): + | MRSA survival (MBC test) ([7]; 5,000 mg/L, Day 2, MRSA Inoculum 4.4 × 10^5 CFU/ml): + | MRSA survival (MBC test) ([7]; 10,000 mg/L, Day 2, MRSA Inoculum 4.4 × 10^5 CFU/ml): 0 | lidocaine concentration that consistently inhibits in-vitro platelet aggregation ([1]; aggregation induced by ADP, epinephrine and collagen): ≥ 0.5 mg/mL | effect on platelet aggregation induced by ADP [1]: inhibit platelet aggregation induced by ADP | effect on platelet aggregation ([1]; safe systemic concentrations (e.g. ≤6 micrograms/ml)): no effect on platelet aggregation | maximum safe dosage (estimated) [9]: 30 mg/kg

Gentamicin
clinically significant adverse effects of subcutaneous injection in a dilute tumescent solution ([3]; conclusion): without any clinically significant adverse effects | ecchymosis [3]: no ecchymosis | local tenderness upon palpation [3]: no local tenderness upon palpation | stinging upon injection [3]: no stinging upon injection
